The values below come from ChEMBL document CHEMBL1125891, “Synthesis, molecular modeling studies, and muscarinic receptor activity of azaprophen analogues” (J Med Chem, 1991).

Assay [1] has as its target Muscarinic acetylcholine receptor. As to the kind of experiment: Inhibition of methacholine induced phasic contraction of guinea pig ileum. It counts as functional, tissue-based, Cavia porcellus.
Assay [2] is filed under the species Cavia porcellus. As to the kind of experiment: The compound was tested for inhibition against methacholine induced tonic contraction in guinea pig ileum. The assay is classed as functional. Conditions: read-out: pA2 (converted).
Assay [3] has as its target Muscarinic acetylcholine receptor. As to the kind of experiment: Inhibition of [3H]pirenzepine binding against muscarinic acetylcholine receptor in rat brain. The assay is classed as tissue-based.
The target is the same in assay [4]. The assay can be described thus: Inhibition of [3H]QNB binding against muscarinic acetylcholine receptor in guinea pig ileum. The assay is classed as tissue-based, Cavia porcellus.
Assay [5] has as its target T1, Muscarinic acetylcholine receptor M3 (Rattus norvegicus, UniProt P08483). The assay can be described thus: Binding activity against rat muscarinic acetylcholine receptor M3 using [3H]QNB as the radioligand.
Assay [6] concerns the target Muscarinic acetylcholine receptor.
Description: Inhibition of [3H]QNB binding against muscarinic acetylcholine receptor in rat brain.
The species named for assay [7] is Cavia porcellus. The assay can be described thus: The compound was tested for inhibition against tonic contraction in guinea pig ileum. The assay is classed as functional. The note with it: read-out: pA2 (converted).
For assay [8], the target named is T2, Muscarinic acetylcholine receptor M1 (Rattus norvegicus, UniProt P08482).
T2 sequence (P08482 whole entry): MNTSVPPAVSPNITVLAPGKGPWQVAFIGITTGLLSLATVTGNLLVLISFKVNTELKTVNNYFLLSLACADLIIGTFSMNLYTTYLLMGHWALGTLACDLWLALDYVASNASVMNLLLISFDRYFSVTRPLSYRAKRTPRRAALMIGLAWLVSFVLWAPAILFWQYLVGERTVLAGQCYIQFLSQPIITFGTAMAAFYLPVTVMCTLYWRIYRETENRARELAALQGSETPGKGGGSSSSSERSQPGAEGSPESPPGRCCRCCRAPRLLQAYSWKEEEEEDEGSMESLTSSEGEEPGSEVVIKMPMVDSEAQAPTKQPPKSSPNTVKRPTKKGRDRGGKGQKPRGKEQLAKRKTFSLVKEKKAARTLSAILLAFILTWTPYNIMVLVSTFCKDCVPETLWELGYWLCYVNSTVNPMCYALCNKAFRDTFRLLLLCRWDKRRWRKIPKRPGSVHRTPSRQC
As to the kind of experiment: Binding activity against rat muscarinic acetylcholine receptor M1 using [3H]QNB as the radioligand.

The species entered for assay [9] is Cavia porcellus. The assay can be described thus: Inhibition against methacholine induced phasic contraction in guinea pig ileum. It counts as functional. Conditions: read-out: pA2 (converted).
Assay [10] is filed under the species Cavia porcellus. The assay can be described thus: Inhibition of methacholine induced tonic contraction of guinea pig ileum. It counts as functional.
Assay [11] deals with Muscarinic acetylcholine receptor. As to the kind of experiment: Inhibition of [3H]QNB binding against muscarinic acetylcholine receptor in rat heart.
The target is the same in assay [12]. This is another data set of the same source.
Description: Inhibition of [3H]OXO-M binding against muscarinic acetylcholine receptor in rat brain membranes
Assay [13] is filed under the species Cavia porcellus. The assay can be described thus: The compound was tested for inhibition against methacholine induced tonic contraction in guinea pig ileum. The assay is classed as functional. The note with it: read-out: pA2 (converted).
Assay [14] has as its target T1, Muscarinic acetylcholine receptor M3. The assay can be described thus: The compound was tested for binding activity against muscarinic acetylcholine receptor M3, using [3H]-QNB as the radioligand.
The target in assay [15] is T2, Muscarinic acetylcholine receptor M1. As to the kind of experiment: The compound was tested for binding activity against muscarinic acetylcholine receptor M1, using [3H]QNB as the radioligand.
Assay [16] deals with Muscarinic acetylcholine receptor. As to the kind of experiment: The compound was tested for inhibition of [3H]OXO-M binding against muscarinic acetylcholine receptor in rat brain membranes. It counts as cell membranes.

pKi: −log10 of the molar value. Several values for one entry are separate records, joined by “and”; a condition that tells them apart may be missing. Equal values may be shown once.

T1 sequence (P08483 whole entry): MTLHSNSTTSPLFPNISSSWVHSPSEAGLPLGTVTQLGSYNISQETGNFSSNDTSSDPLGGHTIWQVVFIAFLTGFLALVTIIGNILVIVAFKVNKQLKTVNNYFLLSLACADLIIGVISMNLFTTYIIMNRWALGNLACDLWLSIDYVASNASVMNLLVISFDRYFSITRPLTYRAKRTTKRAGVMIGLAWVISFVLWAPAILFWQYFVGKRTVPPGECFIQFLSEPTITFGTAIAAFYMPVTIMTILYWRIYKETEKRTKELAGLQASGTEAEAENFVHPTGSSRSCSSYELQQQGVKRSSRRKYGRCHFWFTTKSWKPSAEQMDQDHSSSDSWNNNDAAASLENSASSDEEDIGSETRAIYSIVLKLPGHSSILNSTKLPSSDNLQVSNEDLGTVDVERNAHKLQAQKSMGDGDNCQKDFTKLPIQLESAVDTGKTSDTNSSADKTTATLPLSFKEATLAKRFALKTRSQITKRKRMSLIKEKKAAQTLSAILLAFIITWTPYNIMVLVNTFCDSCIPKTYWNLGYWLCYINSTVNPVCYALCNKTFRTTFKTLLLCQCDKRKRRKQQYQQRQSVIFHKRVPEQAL

For orientation: Ki means a dissociation constant, usually derived from enzyme kinetics or from competition with a known ligand. Usually pKi stands for −log10 of the Ki, conventionally taken in molar units. The low end stands for a high Ki, the high end for a low Ki. For the compound `CC(C(=O)O[C@H]1CC2CC(C1)N(Cc1ccccc1)C2)(c1ccccc1)c1ccccc1` (some centres not stated), the “-Log Kd” value in assay [1] came out at 8.04; in assay [10] it was 8.03. Also, the Kb is 5.62 nM in assay [2], 5.62 nM in assay [7] and 6.17 nM in assay [9]. Further, the inhibition constant Ki in assay [3] turned out to be 27.9 nM; in assay [4], 12.8 nM; in assay [6] it was 9.53 nM; in assay [11] it was 9.28 nM. For the same compound, the values for the pKi in [5] and in assay [8] were 7.90 and 7.96, respectively.

With `CC(=O)O[C@@H]1CC2CC(C1)N(C)C2` (single isomer, unassigned; (+)), the values for the Ki in [4], in [6] and in assay [12] were 10400 nM, 6470 nM and 10400 nM, respectively. Besides, the pKi in assay [5] is 4.95; in assay [8], 5.15.

As for `CN1CC2CC1C[C@@H](OC(=O)C(c1ccccc1)c1ccccc1)C2` (some centres not stated), the “-Log Kd” value in assay [1] amounted to 8.45. For the same compound, the Ki in assay [3] came to 2.87 nM; in assay [4] it was 8.21 nM; in [6], 1.89 nM; in [11], 5.49 nM. The results for the pKi in [5] and in [8] were 8.37 and 8.91, respectively. The Kb in assay [13] is 1.86 nM; in assay [9] it was 1.74 nM.

In the case of `CN1CC2CC1C[C@@H](OC(=O)C(C)(c1ccccc1)c1ccccc1)C2` (stereo in doubt; 1), the “-Log Kd” value in assay [1] is given as 10.46. Besides, the Ki worked out at 0.118 nM in [3], 0.279 nM in assay [4], 0.13 nM in assay [6] and 0.196 nM in assay [11]. Also, the values for the pKi in assay [5] and in [8] were 9.33 and 10.06, respectively. For the same compound, the Kb in [9] is 0.0741 nM.

For `CC(=O)O[C@@H]1CC2CC(C1)N(C)C2` (single isomer, unassigned; (-)), the Ki in assay [4] came out at 38100 nM; in assay [6], 23000 nM; in [12], 33900 nM. Moreover, the pKi in assay [5] was 4.33; in assay [8], 4.66.

Take `CN1CC2CC1C[C@@H](OC(=O)C(C)(c1ccccc1)c1ccccc1)C2` (single isomer, unassigned; (+)): the Ki was determined as 0.054 nM in assay [4] and 0.0297 nM in assay [6]. The pKi was 10.01 in assay [14] and 10.42 in assay [15].

As for `CC(=O)O[C@H]1CC2CC(C1)N([C@H](C)c1ccccc1)C2` (some centres not stated), the inhibition constant Ki in assay [4] stood at 7700 nM; in [6] it was 10100 nM; in [12], 1950 nM. For the same compound, the pKi is 4.83 in assay [5] and 4.89 in assay [8].

Turning to `CC(=O)O[C@H]1CC2CC(C1)N(C(C)c1ccccc1)C2` (some centres not stated), the Ki came out at 4570 nM in [4], 3530 nM in assay [6] and 113 nM in assay [12]. In addition, the values for the pKi in assay [5] and in [8] were 5.47 and 5.56, respectively.

For `CC(=O)O[C@@H]1C[C@@H]2C[C@H](C1)N([C@H](C)c1ccccc1)C2` (stereo in doubt; 12), the Ki in assay [4] stood at 12900 nM; in assay [6], 19100 nM; in [12] it was 23300 nM. Besides, the figures for the negative-log Ki (pKi) in assay [5] and in [8] were 4.52 and 4.64, respectively.

For `CC(=O)O[C@H]1CC2CC(C1)N(C)C2` (stereo in doubt; 8), the Ki in [3] was 9810 nM; in assay [4], 8400 nM; in [6], 7530 nM; in assay [12] it was 1150 nM. In addition, the results for the pKi in assay [5] and in assay [8] were 5.05 and 5.04, respectively.

On to `CC(=O)O[C@H]1CC2CC(C1)N(C)C2` (single isomer, unassigned; (+)), for which the Ki in assay [4] is 21000 nM; in [6] it was 8560 nM; in [16], 2170 nM. For the same compound, the pKi in assay [5] is 4.71; in assay [8] it was 4.86.

For `CN1CC2CC1C[C@H](OC(=O)C(c1ccccc1)c1ccccc1)C2` (some centres not stated), in assay [1], the “-Log Kd” value is 8.27 and 8.32. The Ki is 5.73 nM in assay [3], 19.1 nM in assay [4], 4.07 nM in assay [6] and 16.9 nM in [11]. In addition, the pKi was 7.95 in assay [5] and 8.32 in [8]. For the same compound, the Kb in assay [13] is 1.82 nM; in assay [9], 1.55 nM.

Turning to `CC(=O)O[C@H]1CC2CC(C1)N(C)C2` (single isomer, unassigned; (-)), the Ki came to 4190 nM in assay [4], 3730 nM in [6] and 6550 nM in assay [12]. The pKi was 5.30 in [5] and 5.14 in assay [8].

`CN1CC2CC1C[C@H](OC(=O)C(C)(c1ccccc1)c1ccccc1)C2` (some centres not stated): the figures for the “-Log Kd” value in [1] and in [10] were 8.44 and 8.75, respectively. Besides, the Ki in assay [3] was 12.7 nM; in assay [4], 9.64 nM; in assay [6], 4.2 nM; in [11], 12.9 nM. In addition, the pKi in assay [5] is 8.03; in assay [8], 8.53. Moreover, the results for the Kb in assay [13] and in [9] were 1.91 nM and 1.86 nM, respectively.

For `CC(=O)O[C@@H]1C[C@@H]2C[C@H](C1)N([C@H](C)c1ccccc1)C2` (stereo in doubt; 13), the Ki in assay [4] is 3750 nM; in [6] it was 4710 nM; in [12] it was 4150 nM. The results for the pKi in assay [5] and in assay [8] were 5.37 and 5.04, respectively.

Turning to `CC(=O)O[C@@H]1CC2CC(C1)N(C)C2` (stereo in doubt; 9), the Ki in assay [3] turned out to be 12500 nM; in assay [4], 11900 nM; in assay [6], 8550 nM; in assay [12], 7820 nM. Moreover, the pKi in assay [5] was 4.85; in assay [8], 5.06.

Consider `CN1CC2CC1C[C@@H](OC(=O)C(C)(c1ccccc1)c1ccccc1)C2` (single isomer, unassigned; (-)), for which the Ki in assay [4] worked out at 14.5 nM; in [6], 6.36 nM. Moreover, the pKi in assay [5] was 7.97; in assay [8], 8.10.
